Reference: ChEMBL document CHEMBL1142200, “Efficacy of delayed treatment with ST-246 given orally against systemic orthopoxvirus infections in mice” (Antimicrob Agents Chemother, 2007)
Calls of active or inactive are those of the source. No cut-off for these calls is given here.

How the values were obtained:
Ectromelia virus [1] = assay: Reduction of Ectromelia virus replication in BALB/c mouse lung at 100 mg/kg, po once daily after 6 days; format: functional, organism-based; design: dose 100 mg/kg
Mus musculus [2] = assay: Effect on mortality of BALB/c mouse inoculated with Cowpox virus at 100 mg/kg after 48 hrs of viral infection, po once daily for 14 days relative to control; format: functional
Mus musculus [3] = assay: Effect on mortality of BALB/c mouse inoculated with Cowpox virus BR at 100 mg/kg after 4 hrs of viral infection, po once daily for 7 days relative to control; format: functional
Ectromelia virus [4] = assay: Reduction of Ectromelia virus replication in BALB/c mouse liver at 100 mg/kg, po once daily after 6 days; format: functional, organism-based; design: dose 100 mg/kg
Mus musculus [5] = assay: Effect on mortality of BALB/c mouse inoculated with Cowpox virus BR at 100 mg/kg after 24 hrs of viral infection, po once daily for 14 days relative to control; format: functional
Ectromelia virus [6] = assay: Reduction of Ectromelia virus replication in BALB/c mouse lung at 100 mg/kg, po once daily after 8 days; format: functional, organism-based; design: dose 100 mg/kg
Vaccinia virus [7] = assay: Reduction of Vaccinia virus WR replication in BALB/c mouse liver at 50 mg/kg after 24 hrs of viral infection, po for 9 days; format: functional, organism-based; design: dose 50 mg/kg; conditions: Orthopoxvirus vaccinia
Mus musculus [8] = assay: Effect on mortality of BALB/c mouse inoculated with Cowpox virus at 10 mg/kg after 72 hrs of viral infection, po once daily for 14 days relative to control; format: functional
Mus musculus [9] = assay: Effect on mortality of A/NCr mouse inoculated with 4100 PFU ectromelia virus at 100 mg/kg after 24 hrs of viral infection, po twice daily for 14 days; format: functional
[10] = Selectivity index, ratio of CC50 for HFF cells to EC50 for Vaccinia virus WR infected HFF cells; format: functional
Cowpox virus = assay: Reduction of Cowpox virus BR replication in BALB/c mouse kidney at 50 mg/kg after 24 hrs of viral infection, po for 9 days; format: functional, organism-based; design: dose 50 mg/kg
Mus musculus [11] = assay: Effect on mortality of BALB/c mouse inoculated with Cowpox virus BR at 50 mg/kg after 24 hrs of viral infection, po for 9 days; format: functional, organism-based; design: dose 50 mg/kg
Ectromelia virus [12] = assay: Reduction of Ectromelia virus replication in BALB/c mouse spleen at 100 mg/kg, po once daily after 4 days; format: functional, organism-based; design: dose 100 mg/kg
Ectromelia virus [13] = assay: Reduction of Ectromelia virus replication in BALB/c mouse trachea at 100 mg/kg, po once daily after 8 days; format: functional, organism-based; design: dose 100 mg/kg
Mus musculus [14] = assay: Effect on mortality of A/NCr mouse inoculated with 41 PFU ectromelia virus at 100 mg/kg after 24 hrs of viral infection, po twice daily for 14 days; format: functional
Mus musculus [15] = assay: Effect on mortality of BALB/c mouse inoculated with Cowpox virus BR at 100 mg/kg after 4 hrs of viral infection, po once daily for 10 days relative to control; format: functional
Mus musculus [16] = assay: Effect on mortality of A/NCr mouse inoculated with 4.1 PFU ectromelia virus at 100 mg/kg after 4 hrs of viral infection, po twice daily for 14 days; format: functional
Mus musculus [17] = assay: Effect on mortality of BALB/c mouse inoculated with Vaccinia virus WR at 50 mg/kg after 24 hrs of viral infection, po for 9 days; format: functional, organism-based; design: dose 50 mg/kg
Mus musculus [18] = assay: Effect on mortality of A/NCr mouse inoculated with ectromelia virus at 100 mg/kg after 0 hrs of viral infection, po once daily for 10 days relative control; format: functional
[19] = Selectivity index, ratio of CC50 for HFF cells to EC50 for Cowpox virus Brighton infected HFF cells; format: functional
Mus musculus [20] = assay: Effect on mortality of BALB/c mouse inoculated with Cowpox virus BR at 100 mg/kg after 24 hrs of viral infection, po once daily for 5 days relative to control; format: functional
Mus musculus [21] = assay: Effect on mortality of BALB/c mouse inoculated with Cowpox virus at 100 mg/kg after 72 hrs of viral infection, po once daily for 14 days relative to control; format: functional
Ectromelia virus [22] = assay: Reduction of Ectromelia virus replication in BALB/c mouse spleen at 100 mg/kg, po once daily after 14 days; format: functional, organism-based; design: dose 100 mg/kg
Mus musculus [23] = assay: Effect on mortality of BALB/c mouse inoculated with Cowpox virus at 100 mg/kg after 24 hrs of viral infection, po once daily for 14 days relative to control; format: functional
Mus musculus [24] = assay: Effect on mortality of BALB/c mouse inoculated with Vaccinia virus WR at 100 mg/kg after 4 hrs of viral infection, po once daily for 14 days relative to control; format: functional
Mus musculus [25] = assay: Effect on mortality of BALB/c mouse inoculated with Cowpox virus at 100 mg/kg after 4 hrs of viral infection, po once daily for 14 days relative to control; format: functional
Mus musculus [26] = assay: Effect on mortality of BALB/c mouse inoculated with Cowpox virus at 30 mg/kg after 72 hrs of viral infection, po once daily for 14 days relative to control; format: functional
Mus musculus [27] = assay: Effect on mortality of BALB/c mouse inoculated with Cowpox virus at 10 mg/kg after 4 hrs of viral infection, po once daily for 14 days relative to control; format: functional
Mus musculus [28] = assay: Effect on mortality of BALB/c mouse inoculated with Vaccinia virus WR at 100 mg/kg after 24 hrs of viral infection, po once daily for 5 days relative to control; format: functional
Vaccinia virus [29] = assay: Reduction of Vaccinia virus WR replication in BALB/c mouse kidney at 50 mg/kg after 24 hrs of viral infection, po for 9 days; format: functional, organism-based; design: dose 50 mg/kg; conditions: Orthopoxvirus vaccinia
Mus musculus [30] = assay: Effect on mortality of A/NCr mouse inoculated with ectromelia virus at 100 mg/kg after 48 hrs of viral infection, po once daily for 10 days relative control; format: functional

## O=C(NN1C(=O)[C@@H]2[C@@H]3C=C[C@@H]([C@H]4C[C@@H]34)[C@@H]2C1=O)c1ccc(C(F)(F)F)cc1 [TECOVIRIMAT]
Ectromelia virus [1]
  Activity: Active
Mus musculus [2]
  Activity: 7%
Mus musculus [3]
  Activity: 7%
Ectromelia virus [4]
  Activity: Active
Mus musculus [5]
  Activity: 0%
Ectromelia virus [6]
  Activity: Active
Vaccinia virus [7]
  Activity: Active
Mus musculus [8]
  Activity: 47%
Mus musculus [9]
  Activity: 0%
[10]
  Ratio CC50/EC50: >1000
Cowpox virus
  Activity: Active
Mus musculus [11]
  Activity: Active
Ectromelia virus [12]
  Activity: Active
Ectromelia virus [13]
  Activity: Active
Mus musculus [14]
  Activity: 0%
Mus musculus [15]
  Activity: 27%
Mus musculus [16]
  Activity: 0%
Mus musculus [17]
  Activity: Active
Mus musculus [18]
  Activity: 0%
[19]
  Ratio CC50/EC50: >208
Mus musculus [20]
  Activity: 73%
Mus musculus [21]
  Activity: 40%
Ectromelia virus [22]
  Activity: Active
Mus musculus [23]
  Activity: 27%
Mus musculus [24]
  Activity: 20%
Mus musculus [25]
  Activity: 11%
Mus musculus [26]
  Activity: 40%
Mus musculus [27]
  Activity: 92%
Mus musculus [28]
  Activity: 7%
Vaccinia virus [29]
  Activity: Active
Mus musculus [30]
  Activity: 0%
